From PubChem BioAssay AID200 (DTP/NCI, 2004)
Where “and” joins values, the source holds several entries; their conditions need not be identical. Equal values may be shown once. Inconclusive results and toxic doses are left out.

Test system: B6C3F1 mice, B16 melanoma ip, median survival T/C
Assay: NCI In Vivo Anticancer Drug Screen. Data for tumor model B16 Melanoma (intraperitoneal) in B6C3F1 mice
Conditions: endpoint: median survival time, higher = longer survival
Method in brief: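 Mice bearing transplanted tumor were dosed with compound or vehicle, and survival was recorded. Activity is expressed as the treated-group measurement (T) divided by the vehicle control measurement (C).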

[1] = dose: 100.0 mg/kg/injection, schedule: Q01DX009 (ip), vehicle: Klucel (hydroxypropylcellulose) (HPC)
[2] = dose: 1.0 mg/kg/injection, schedule: Q01DX009 (ip), vehicle: saline with Tween-80
[3] = dose: 2.0 mg/kg/injection, schedule: Q01DX009 (ip), vehicle: saline with Tween-80
[4] = dose: 4.0 mg/kg/injection, schedule: Q01DX009 (ip), vehicle: saline with Tween-80

## CC(C)(C)OC(=O)NC(Cc1cnc[nH]1)C(=O)O (centres undefined)
[1]
  T/C: 97 % of control
dose: 200.0 mg/kg/injection, schedule: Q01DX009 (ip), vehicle: Klucel (hydroxypropylcellulose) (HPC)
  T/C: 94 % of control
dose: 400.0 mg/kg/injection, schedule: Q01DX009 (ip), vehicle: Klucel (hydroxypropylcellulose) (HPC)
  T/C: 106 % of control

## C=C1C(=O)O[C@@H]2C[C@@H](C)[C@@H]3C=CC(=O)[C@@]3(C)[C@@H](OC(=O)CC(=O)O[C@H]3[C@@H]4C(=C)C(=O)O[C@@H]4C[C@@H](C)[C@@H]4C=CC(=O)[C@]43C)[C@H]12
dose: 0.25 mg/kg/injection, schedule: Q01DX009 (ip), vehicle: saline with Tween-80
  T/C: 88 % of control
dose: 0.5 mg/kg/injection, schedule: Q01DX009 (ip), vehicle: saline with Tween-80
  T/C: 96 % of control
[2]
  T/C: 102 % of control
[3]
  T/C: 110 % of control
[4]
  T/C: 116 % of control

## CCC1=C(C)c2cc3[n-]c(cc4nc(cc5[n-]c(cc1n2)c(C)c5CCC(=O)OC)C(CCC(=O)OC)=C4C)c(C)c3CC.[Ni+2]
dose: 2.4 mg/kg/injection, schedule: Q01DX009 (ip), vehicle: saline with Tween-80
  T/C: 88 % of control
dose: 4.7 mg/kg/injection, schedule: Q01DX009 (ip), vehicle: saline with Tween-80
  T/C: 88 % of control
dose: 9.4 mg/kg/injection, schedule: Q01DX009 (ip), vehicle: saline with Tween-80
  T/C: 92 % of control

## C=C1[C@@H](O)[C@]2(O)OC[C@@]34[C@H]1[C@@H](OC(=O)C(C)CC)C(=O)O[C@@H]3C[C@H]1C(C)=CC(=O)[C@@H](O)[C@]1(C)[C@@H]24 (some centres undefined)
[2]
  T/C: 175 % of control
[3]
  T/C: 165 % of control
[4]
  T/C: 175 % of control
dose: 8.0 mg/kg/injection, schedule: Q01DX009 (ip), vehicle: saline with Tween-80
  T/C: 165 % of control
dose: 16.0 mg/kg/injection, schedule: Q01DX009 (ip), vehicle: saline with Tween-80
  T/C: 180 % of control

## CC1(CO)C(O)CCC2(C)C1CCC1CC3CC12CCC3(O)CO (centres undefined)
dose: 10.0 mg/kg/injection, schedule: Q03HX027 (ip), vehicle: saline with Tween-80
  T/C: 118 % of control
dose: 12.5 mg/kg/injection, schedule: Q01DX009 (ip), vehicle: saline with Tween-80
  T/C: 116 % of control and 117 % of control
dose: 25.0 mg/kg/injection, schedule: Q01DX009 (ip), vehicle: saline with Tween-80
  T/C: 119 % of control and 122 % of control
dose: 30.0 mg/kg/injection, schedule: Q01DX005 (iv), vehicle: Klucel (hydroxypropylcellulose) (HPC)
  T/C: 103 % of control
dose: 40.0 mg/kg/injection, schedule: Q03HX027 (ip), vehicle: saline with Tween-80
  T/C: 187 % of control and 202 % of control
dose: 50.0 mg/kg/injection, schedule: Q01DX009 (ip), vehicle: distilled water + Tween-80
  T/C: 179 % of control
dose: 50.0 mg/kg/injection, schedule: Q01DX009 (ip), vehicle: saline with Tween-80
  T/C: 159 % of control
dose: 50.0 mg/kg/injection, schedule: Q01DX009 (ip), vehicle: saline
  T/C: 109 % of control
dose: 60.0 mg/kg/injection, schedule: Q01DX005 (iv), vehicle: Klucel (hydroxypropylcellulose) (HPC)
  T/C: 95 % of control
dose: 60.0 mg/kg/injection, schedule: Q01DX005 (oral), vehicle: Klucel (hydroxypropylcellulose) (HPC)
  T/C: 106 % of control
dose: 75.0 mg/kg/injection, schedule: Q01DX009 (ip), vehicle: saline
  T/C: 113 % of control
dose: 80.0 mg/kg/injection, schedule: Q03HX027 (ip), vehicle: saline with Tween-80
  T/C: 235 % of control
dose: 100.0 mg/kg/injection, schedule: Q01DX009 (ip), vehicle: distilled water + Tween-80
  T/C: 166 % of control
dose: 100.0 mg/kg/injection, schedule: Q01DX009 (ip), vehicle: saline with Tween-80
  T/C: 162 % of control and 173 % of control and 187 % of control
dose: 100.0 mg/kg/injection, schedule: Q01DX009 (ip), vehicle: saline
  T/C: 119 % of control
dose: 120.0 mg/kg/injection, schedule: Q01DX005 (ip), vehicle: Klucel (hydroxypropylcellulose) (HPC)
  T/C: 150 % of control
dose: 120.0 mg/kg/injection, schedule: Q01DX005 (iv), vehicle: Klucel (hydroxypropylcellulose) (HPC)
  T/C: 104 % of control
dose: 120.0 mg/kg/injection, schedule: Q01DX005 (oral), vehicle: Klucel (hydroxypropylcellulose) (HPC)
  T/C: 99 % of control
dose: 150.0 mg/kg/injection, schedule: Q01DX009 (ip), vehicle: saline
  T/C: 161 % of control
dose: 200.0 mg/kg/injection, schedule: Q01DX009 (ip), vehicle: distilled water + Tween-80
  T/C: 201 % of control
dose: 200.0 mg/kg/injection, schedule: Q01DX009 (ip), vehicle: saline with Tween-80
  T/C: 236 % of control
dose: 240.0 mg/kg/injection, schedule: Q01DX005 (ip), vehicle: Klucel (hydroxypropylcellulose) (HPC)
  T/C: 184 % of control
dose: 240.0 mg/kg/injection, schedule: Q01DX005 (oral), vehicle: Klucel (hydroxypropylcellulose) (HPC)
  T/C: 104 % of control
dose: 480.0 mg/kg/injection, schedule: Q01DX005 (oral), vehicle: Klucel (hydroxypropylcellulose) (HPC)
  T/C: 100 % of control

## COc1cccc2c1C(=O)c1c(O)c3c(c(O)c1C2=O)C[C@@](O)(c1csc(N)n1)C[C@@H]3OC1CC(N)C(O)C(C)O1 (some centres undefined)
dose: 25.0 mg/kg/injection, schedule: Q01DX001 (ip), vehicle: water
  T/C: 154 % of control

## O=[N+]([O-])c1ccc2c3c(ccc([N+](=O)[O-])c13)CC2
dose: 25.0 mg/kg/injection, schedule: Q01DX009 (ip), vehicle: Klucel (hydroxypropylcellulose) (HPC)
  T/C: 89 % of control
dose: 50.0 mg/kg/injection, schedule: Q01DX009 (ip), vehicle: Klucel (hydroxypropylcellulose) (HPC)
  T/C: 89 % of control
[1]
  T/C: 91 % of control and 95 % of control

## CN(C)N=Nc1ccc2c(c1)N(C)c1ccc(F)cc1S2
dose: 6.25 mg/kg/injection, schedule: Q01DX009 (ip), vehicle: other
  T/C: 106 % of control
dose: 12.5 mg/kg/injection, schedule: Q01DX009 (ip), vehicle: other
  T/C: 113 % of control
dose: 25.0 mg/kg/injection, schedule: Q01DX009 (ip), vehicle: other
  T/C: 115 % of control
dose: 50.0 mg/kg/injection, schedule: Q01DX009 (ip), vehicle: other
  T/C: 120 % of control
dose: 100.0 mg/kg/injection, schedule: Q01DX009 (ip), vehicle: other
  T/C: 117 % of control
